Assay results published in the NIST ThermoML archive (doi:10.1021/je700690q).
± gives the expanded uncertainty stated by the source.

Conditions: Liquid, Closed cell (Static) method

vapor or sublimation pressure (364.52 K) | SMILES | further results
143.3 ± 1 kPa | CC(C)(C)O [2-methylpropan-2-ol] | 
1268.7 ± 5.7 kPa [middle of 5 runs] | C/C=C/C [(E)-2-butene] | 
75.4 ± 0.9 kPa | CCC(C)O (stereo unspecified) [butan-2-ol] | 
267.6 ± 1.4 kPa | CO [methanol] | 
 | CCCO [propan-1-ol] | vapor or sublimation pressure (364.53 K): 81.2 ± 0.9 kPa
 | CC(C)O [propan-2-ol] | vapor or sublimation pressure (364.51 K): 144.1 ± 1 kPa
